# Results from PubChem BioAssay AID720727 (Broad Institute, 2013).
# Active and inactive are the calls of the source.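 The calls were made as follows: active = compound whose rising-signal curve crosses activity 40 at or below its top valid dose; inconclusive = flat curve holding activity 30 to 70, or poor fit; inactive = the rest.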
# Test system: Huh7 miR-21 level, qRT-PCR, 48 h
# Experiment: miR-21 fold change in Huh7 hepatoma cells – cell-based, qRT-PCR, dry powder, selectivity assay for miR-122 activator project, dose response (AID 720727)
row,Structure (SMILES),AC40
1,Cc1cccc(NC(=O)Nc2ccc3c(c2)C(=O)N(C)[C@@H]2CC[C@H](CC(=O)NCc4ccccc4Cl)O[C@H]2CO3)c1,17.9 µM
2,CCn1cc(C(=O)O)c(=O)c2cc(F)c(N3CCNCC3)nc21,> 35 µM (inactive)
3,CNC[C@@H]1Oc2cc(C#CC3CCCCC3)ccc2S(=O)(=O)N([C@@H](C)CO)C[C@@H]1C,29.2 µM
4,CN(CC(=O)Nc1cccc(Cl)c1)S(=O)(=O)c1ccc2c(c1)n(C)c(=O)c(=O)n2C,29.8 µM
5,COCC(=O)N(C)C[C@H]1Oc2cc(C#Cc3cccnc3)ccc2S(=O)(=O)N([C@H](C)CO)C[C@H]1C,4.22 µM
6,C[C@H]1CN([C@@H](C)CO)C(=O)c2cc(-c3ccc(C#N)cc3)cnc2O[C@H]1CN(C)C(=O)c1ccccc1,30.6 µM
7,COCC(=O)N(C)C[C@H]1Oc2cc(-c3ccccc3F)ccc2S(=O)(=O)N([C@H](C)CO)C[C@H]1C,18.8 µM
8,COCC(=O)N(C)C[C@@H]1Oc2ncc(-c3ccc(C#N)cc3)cc2C(=O)N([C@@H](C)CO)C[C@@H]1C,18.4 µM
9,CN1C(=O)c2cc(NC(=O)c3cccc(F)c3)ccc2OC[C@H]2O[C@@H](CC(=O)O)CC[C@H]21,11.7 µM
10,Cc1cc(C(C)(C)C)cc(S(=O)(=O)NCCc2ccncc2)c1C,33.5 µM
11,CN1C(=O)c2cc(NC(=O)c3cccc(F)c3)ccc2OC[C@H]2O[C@@H](CC(=O)O)CC[C@@H]21,32.5 µM
12,O=C(CN=C1NS(=O)(=O)c2ccccc21)Nc1ccccc1N1CCCCCC1,28.4 µM
13,COc1ccc(S(=O)(=O)N(C)C[C@@H]2Oc3ncc(/C=C/c4ccccc4)cc3C(=O)N([C@@H](C)CO)C[C@@H]2C)cc1,14.9 µM
14,CCOC(=O)N1CCC(NC(=O)c2ccc3c(c2)sc2nc(-c4ccccc4)cn23)CC1,17.5 µM
15,CN(C)CCCOc1nn(Cc2ccccc2)c2ccccc12,11.4 µM
